The source of these data is patent US5527703A (Merck & Co., Inc., priority 1994, dated 1996).

For experiment [1], the target named is T1, GluClβ (Caenorhabditis elegans, UniProt Q17328).
T1 construct: the full-length open reading frame of the GluCl cDNA encoding the GluClα (52,550 kDa) and GluClβ (49,900kDa) subunits; expressed in transfected cells; host or cells: Xenopus laevis oocytes injected with in vitro RNA
T1 sequence (Q17328 23-434): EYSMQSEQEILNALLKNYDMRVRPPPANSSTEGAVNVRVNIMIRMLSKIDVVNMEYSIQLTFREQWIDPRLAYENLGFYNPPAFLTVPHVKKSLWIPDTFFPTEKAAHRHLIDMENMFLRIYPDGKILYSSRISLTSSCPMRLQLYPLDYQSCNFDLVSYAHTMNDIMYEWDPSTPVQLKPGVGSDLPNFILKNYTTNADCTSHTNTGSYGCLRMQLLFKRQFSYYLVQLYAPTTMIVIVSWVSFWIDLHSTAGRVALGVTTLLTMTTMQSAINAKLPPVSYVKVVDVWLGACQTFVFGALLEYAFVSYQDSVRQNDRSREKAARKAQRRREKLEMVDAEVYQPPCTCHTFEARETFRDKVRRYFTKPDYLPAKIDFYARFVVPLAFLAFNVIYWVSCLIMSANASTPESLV
As to the kind of experiment: Activation of current in Xenopus oocytes expressing homomeric GluClβ (voltage clamp). Format: cell-based, C. elegans. As for the experimental part: (§1) Xenopus laevis oocytes were prepared and injected using standard methods previously described and known in the art [Arena, J. P., Liu. K. K., Paress, P. S. & Cully. D. F. Mol. Pharmacol. 40, 368-374 (1991 ); Arena, J. P., Liu, K. K., Paress, P. S., Schaeffer, J. M. & Cully, D. F. Mol. Brain Res. 15, 339-348 (1992)]. Adult female Xenopus laevis were anesthetized with 0.17% tricaine methanesulfonate and the ovaries were surgically removed and placed in a dish consisting of (mM): NaCl 1 82.5, KCl 2. MgCl2 1, CaCl2 1.8, HEPES 5 adjusted to pH 7.5 with NaOH (OR-2). Ovarian lobes were broken open, rinsed several times, and gently shaken in OR-2 containing 0.2% collagenase (Sigma, Type 1A) for 2-5 hours. When approximately 50% of the follicular layers were removed, Stage V and VI oocytes were selected and placed in media consisting of (mM): NaCl 86, KCl 2, MgCl2 1, CaCl2 1.8, HEPES 5, Na pyruvate 2.5, theophylline 0.5, gentamicin 0.1 adjusted to pH 7.5 with NaOH (ND-96) for 24-48 hours before injection. Oocytes were injected with 50-70 nl of poly(A^+) RNA (1 mg/ml) or 50 nl of GluClα (0.1-100 ng) and/or GluClβ (0.1-100 ng). Control oocytes were injected with 50 nl of water. Oocytes were incubated for 2-10 days in ND-96 before recording. Incubations and collagenase digestion were carried out at 18° C.
(§2) Recordings were made at room temperature 2-10 days after injection. Unless otherwise indicated recordings were made in standard frog saline consisting of (mM): NaCl 115, KCl 2, MgCl2 1, CaCl2 1.8, HEPES 10 adjusted to pH 7.5 with NaOH. Oocytes were voltage-clamped using a standard two microelectrode amplifier (Dagan 8500 or TEV-200, Minneapolis,Minn.). Pipettes were filled with 3M KCl and had resistances between 0.5-3.0 M.OMEGA.. A plexiglass recording chamber (volume 200 μl) was constantly perfused at a rate of 10 ml/min. The recording chamber was connected to ground with a Ag/AgCl electrode directly, or through a 3M KCl agar bridge when extracellular chloride was varied. For low chloride solutions NaCl was replaced with equimolar concentrations of sodium isethionic acid. For low sodium solutions NaCl was replaced with equimolar KCl or choline Cl. Data were acquired and analyzed using PCLAMP with a TL-1 interface (Axon Instruments, Foster City, Calif.). Membrane current at a holding potential of -80 mV was recorded. The amplitude of drug-sensitive current was determined by subtracting the holding current at -80 mV from the peak current obtained in the presence of drug. Data were filtered at 30 Hz and sampled at 16.6 Hz. Current/voltage relationships (I/V) and reversal potentials (Erev) were determined using a 1-3 sec voltage ramp over the voltage range of -110 to +80 mV. For the ramps, data were filtered at 0.3-3 kHz and sampled at 160 Hz. Current in drug free solution was subtracted from current in the presence of drug to obtain drug-sensitive current/voltage relationships.
(§3) Electrophysiological properties were examined in oocytes injected with in vitro RNA from pGluClα and pGluClβ (FIG. 5).

Experiment [2] has as its target T2, GluCl α&β (Caenorhabditis elegans, UniProt G5EBR3+Q17328).
T2 construct: the full-length open reading frame of the GluCl cDNA encoding the GluClα (52,550 kDa) and GluClβ (49,900kDa) subunits; expressed in transfected cells; host or cells: Xenopus laevis oocytes injected with in vitro RNA
T2 sequence (G5EBR3 21-461): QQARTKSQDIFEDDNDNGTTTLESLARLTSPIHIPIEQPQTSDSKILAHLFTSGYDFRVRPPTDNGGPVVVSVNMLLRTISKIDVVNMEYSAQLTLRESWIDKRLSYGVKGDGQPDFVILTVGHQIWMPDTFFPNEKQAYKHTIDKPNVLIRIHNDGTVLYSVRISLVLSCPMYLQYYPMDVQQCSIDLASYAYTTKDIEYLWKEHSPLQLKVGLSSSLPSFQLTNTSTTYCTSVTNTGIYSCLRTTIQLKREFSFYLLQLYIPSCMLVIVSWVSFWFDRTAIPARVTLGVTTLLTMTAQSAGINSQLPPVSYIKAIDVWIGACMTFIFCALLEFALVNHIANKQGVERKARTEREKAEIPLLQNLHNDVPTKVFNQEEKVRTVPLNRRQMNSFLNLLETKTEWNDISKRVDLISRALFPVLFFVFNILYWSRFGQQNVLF
T2 sequence (Q17328 23-434): T1 sequence (Q17328 23-434)
As to the kind of experiment: Agonist activation of current in Xenopus oocytes injected with GluClα and GluClβ RNA (two-microelectrode voltage clamp). It is filed as cell-based, C. elegans. Particulars: for type of drug-sensitive current: GluCl α&β oocytes; for voltage dependence of current: I/V. As for the experimental part: as §1, §2, §3
Several ligand-gated ion channel agonists and antagonists were tested on oocytes injected with GluCl α&β (Table 1). […] 255, 449-464 (1976); Arena, J. P., Liu, K. K., Paress, P. S., Schaeffer, J. M. & Cully, D. F. Mol. Brain Res. 15, 339-348 (1992); Lea, T. J. & Usherwood, P. N. R. Comp. Gen. Pharmacol. 4, 351-363 (1973)].

The term EC50 denotes the concentration giving half of the maximal effect.

As for `N[C@@H](CCC(=O)O)C(=O)O` [glutamate], in experiment [1], the “response of homomeric GluClβ channels” value is listed as “selectively responsive” and the “threshold for activation of homomeric GluClβ channels” value turned out to be 50 µM. Besides, the “Hill coefficient (glutamate)” value in experiment [1] (GluClβ) stood at 1.9. Further, the “voltage dependence of current” value in experiment [1] (I/V, GluClβ) is “steep outwardly rectifying voltage dependence”. For the same compound, the EC50 in experiment [1] (read-out: EC50 for glutamate, GluClβ alone) was found to be 380 µM. Also, in experiment [2], the “activation of current / sensitivity of coexpressed GluCl α&β” value was “direct activation of current” and the “type of drug-sensitive current” value is reported as “rapidly activating reversible”. Further, the “glutamate concentrations at which desensitization of the glutamate-sensitive current was observed” value in experiment [2] (GluCl α&β injected oocytes) is listed as “greater than 1 mM”. Further, the “Hill coefficient (glutamate)” value in experiment [2] (GluCl α&β, no IVMPO4) is 1.7. Moreover, in experiment [2] (GluCl α&β), the “voltage dependence of current” value is reported as “outwardly rectifying”.

On to ivermectin-4-O-phosphate [IVMPO4], for which, in experiment [1], the “response of homomeric GluClβ channels” value is “do not respond”. In experiment [2], the “activation of current / sensitivity of coexpressed GluCl α&β” value is on record as “direct activation of current” and the “type of drug-sensitive current” value is reported as “irreversible”. In experiment [2] (GluCl α&β), the “Hill coefficient (IVMPO4)” value worked out at 2.5, the “time for maximal activation of IVMPO4-sensitive current” value stood at 42 ± 2 s and the “voltage dependence of current” value is listed as “outwardly rectifying”. Moreover, in experiment [2] (GluCl α&β, read-out: EC50 for IVMPO4 activation of current), the EC50 is 0.19 µM. Moreover, in experiment [2] (agonist 1 μM, -80 mV, % of response elicited with 10 mM glutamate), the “% of Glutamate 10 mM” value is 117 ± 13%.
